This test has as its target T1, SYK (Homo sapiens, UniProt P43405).
T1 construct: The SYK kinase domain (residues 356-635) is amplified via PCR; made in house; host or cells: Sf9 insect cells (baculovirus, pFastBac1)
As to the kind of experiment: SYK inhibition: in vitro assay of SYK-mediated phosphorylation of FAM-labeled substrate (Caliper LC-3000). Format: biochemical. The conditions noted are these: SYK kinase domain (residues 356-635); 2.4 nM SYK and 45 μM ATP, 3 μM 5FAM-KKKKEEIYFFFG-NH2, RT 60 min, pH 7.3; pIC50 = −log(IC50), IC50 molar.

pIC50: −log10 of the molar value.

`Cc1ccn2ncc(-c3nc(N[C@@H]4CCCC[C@@H]4N)c(F)c4c3C(=O)NC4)c2c1` [Example 59, 6-(((1R,2S)-2-Aminocyclohexyl)amino)-7-fluoro-4-(5-methylpyrazolo[1,5-a]pyridin-3-yl)-1H-pyrrolo[3,4-c]pyridin-3(2H)-one]: the pIC50 is 8.60.

One may read the pIC50 as −log10 of the IC50, conventionally taken in molar units. Low readings indicate a high IC50, high ones a low IC50.

The record behind these values is patent US9663514B2 (Takeda Pharmaceutical Company Limited, priority 2011, dated 2017).
